What was measured:
[1] = human, serum, 4383 h
[2] = human
[3] = human; remark: listed apart in the source
[4] = human; remark: listed apart in the source
[5] = human; remark: listed apart in the source
[6] = human; remark: listed apart in the source
[7] = human; remark: listed apart in the source
[8] = human; remark: listed apart in the source
[9] = human, serum
[10] = Proposed mechanism(s) of liver damage. [column 'MEC' in source]; conditions: human
[11] = Highest frequency of acute liver toxicity observed during clinical trials, expressed as a percentage. [column '% AIGUE' in source]; conditions: human
[12] = Highest frequency of moderate liver toxicity observed during clinical trials, expressed as a percentage. [column '% BIOL' in source]; conditions: human
[13] = human; remark: listed apart in the source
[14] = human, serum; remark: listed apart in the source
[15] = human; remark: listed apart in the source
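Throughout, for Hepatotoxicity (association with vascular disease): count of indexed literature references reporting vascular liver injury in humans, e.g. peliosis hepatitis, hepatic veno-occlusive disease or Budd-Chiari syndrome.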
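Throughout, for Hepatotoxicity (benign tumour): value is a count of indexed literature references citing a benign tumour confirmed by histopathology.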
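Throughout, for Hepatotoxicity (choleostasis): human cholestatic liver injury, shown by histopathology or by peak ALT or AST elevation over alkaline phosphatase ratio below 2, value counts indexed literature reports.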
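Throughout, for Hepatotoxicity (chronic liver disease): chronic liver injury confirmed by histopathology or persistently raised serum aminotransferase activity beyond 6 months, value given as the count of indexed literature references.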
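Throughout, for Hepatotoxicity (cirrhosis): value is a count of indexed literature references reporting cirrhosis confirmed by histopathology.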
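Throughout, for Hepatotoxicity (cytolytic): human cytolytic liver injury, shown by histopathology or by a ratio above 5 of peak ALT or AST elevation to alkaline phosphatase elevation, value counts indexed references.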
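Throughout, for Hepatotoxicity (granulomatous hepatitis): value is a count of indexed literature references reporting granulomatous liver disease confirmed by histopathology.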
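Throughout, for Hepatotoxicity (malignant tumour): malignant tumour confirmed by histopathology, value gives the count of indexed literature references reporting it.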
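Throughout, for Hepatotoxicity (severe hepatitis): human clinical data: severe hepatitis, meaning potentially life-threatening liver failure or clinically observed cases, the value counts how many indexed literature references report it.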
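Throughout, for Hepatotoxicity (steatosis): steatosis confirmed by histopathology, value is the count of indexed references.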

Molecule: Cc1cnc(NC(=O)C2=C(O)c3ccccc3S(=O)(=O)N2C)s1 [MELOXICAM]
- Hepatotoxicity (chronic liver disease) [1]: 0
- Hepatotoxicity (choleostasis) [2]: 0
- Hepatotoxicity (granulomatous hepatitis) [3]: 0
- Hepatotoxicity (benign tumour) [4]: 0
- Hepatotoxicity (cirrhosis) [5]: 0
- Hepatotoxicity (malignant tumour) [6]: 0
- Hepatotoxicity (steatosis) [7]: 0
- Hepatotoxicity (association with vascular disease) [8]: 0
- Hepatotoxicity (acute) [9]: 1
- Hepatotoxicity (mechanism) [10]: Dose-dependant
- Hepatotoxicity (acute) ([11]; Liver): 0%
- Hepatotoxicity (moderate) ([12]; Liver): 11.5%
- Hepatotoxicity (cytolytic) [13]: 0
- Hepatotoxicity (moderate) [14]: 6
- Hepatotoxicity (severe hepatitis) ([15]; Liver): 0

Molecule: PEGASPARGASE
- Hepatotoxicity (chronic liver disease) [1]: 0
- Hepatotoxicity (choleostasis) [2]: 0
- Hepatotoxicity (granulomatous hepatitis) [3]: 0
- Hepatotoxicity (benign tumour) [4]: 0
- Hepatotoxicity (cirrhosis) [5]: 0
- Hepatotoxicity (malignant tumour) [6]: 0
- Hepatotoxicity (steatosis) [7]: 0
- Hepatotoxicity (association with vascular disease) [8]: 0
- Hepatotoxicity (acute) [9]: 2
- Hepatotoxicity (mechanism) [10]: Dose-dependant
- Hepatotoxicity (acute) [11]: 7.7%
- Hepatotoxicity (moderate) [12]: 0%
- Hepatotoxicity (cytolytic) [13]: 0
- Hepatotoxicity (moderate) [14]: 0
- Hepatotoxicity (severe hepatitis) [15]: 0

Molecule: PEGLOTICASE
- Hepatotoxicity (chronic liver disease) [1]: 0
- Hepatotoxicity (choleostasis) [2]: 0
- Hepatotoxicity (granulomatous hepatitis) [3]: 0
- Hepatotoxicity (benign tumour) [4]: 0
- Hepatotoxicity (cirrhosis) [5]: 0
- Hepatotoxicity (malignant tumour) [6]: 0
- Hepatotoxicity (steatosis) [7]: 0
- Hepatotoxicity (association with vascular disease) [8]: 0
- Hepatotoxicity (acute) [9]: 0
- Hepatotoxicity (mechanism) [10]: Dose-dependant
- Hepatotoxicity (acute) [11]: 0%
- Hepatotoxicity (moderate) [12]: 3.7%
- Hepatotoxicity (cytolytic) [13]: 0
- Hepatotoxicity (moderate) [14]: 1
- Hepatotoxicity (severe hepatitis) [15]: 0

Molecule: CN(Cc1cnc2nc(N)nc(N)c2n1)c1c(Cl)cc(C(=O)N[C@@H](CCC(=O)O)C(=O)O)cc1Cl
- Hepatotoxicity (chronic liver disease) [1]: 0
- Hepatotoxicity (choleostasis) [2]: 0
- Hepatotoxicity (granulomatous hepatitis) [3]: 0
- Hepatotoxicity (benign tumour) [4]: 0
- Hepatotoxicity (cirrhosis) [5]: 0
- Hepatotoxicity (malignant tumour) [6]: 0
- Hepatotoxicity (steatosis) [7]: 0
- Hepatotoxicity (association with vascular disease) [8]: 0
- Hepatotoxicity (acute) [9]: 0
- Hepatotoxicity (mechanism) [10]: Dose-dependant
- Hepatotoxicity (acute) [11]: 0%
- Hepatotoxicity (moderate) [12]: 16.7%
- Hepatotoxicity (cytolytic) [13]: 0
- Hepatotoxicity (moderate) [14]: 2
- Hepatotoxicity (severe hepatitis) [15]: 0

Molecule: CNCCNc1ccc2c3c(nn2CCNCCO)-c2c(O)ccc(O)c2C(=O)c13 [TELOXANTRONE]
- Hepatotoxicity (chronic liver disease) [1]: 0
- Hepatotoxicity (choleostasis) [2]: 1
- Hepatotoxicity (granulomatous hepatitis) [3]: 0
- Hepatotoxicity (benign tumour) [4]: 0
- Hepatotoxicity (cirrhosis) [5]: 0
- Hepatotoxicity (malignant tumour) [6]: 0
- Hepatotoxicity (steatosis) [7]: 0
- Hepatotoxicity (association with vascular disease) [8]: 0
- Hepatotoxicity (acute) [9]: 1
- Hepatotoxicity (mechanism) [10]: Dose-dependant
- Hepatotoxicity (acute) [11]: 10.5%
- Hepatotoxicity (moderate) [12]: 36.8%
- Hepatotoxicity (cytolytic) [13]: 1
- Hepatotoxicity (moderate) [14]: 2
- Hepatotoxicity (severe hepatitis) [15]: 0

Molecule: CC1(C)S[C@@H]2[C@H](NC(=O)C(c3ccccc3)S(=O)(=O)O)C(=O)N2[C@H]1C(=O)O (stereo not given in full) [SULBENICILLIN]
- Hepatotoxicity (chronic liver disease) [1]: 0
- Hepatotoxicity (choleostasis) [2]: 2
- Hepatotoxicity (granulomatous hepatitis) [3]: 0
- Hepatotoxicity (benign tumour) [4]: 0
- Hepatotoxicity (cirrhosis) [5]: 0
- Hepatotoxicity (malignant tumour) [6]: 0
- Hepatotoxicity (steatosis) [7]: 0
- Hepatotoxicity (association with vascular disease) [8]: 0
- Hepatotoxicity (acute) [9]: 3
- Hepatotoxicity (mechanism) [10]: Allergic
- Hepatotoxicity (acute) [11]: 1%
- Hepatotoxicity (moderate) [12]: 6.7%
- Hepatotoxicity (cytolytic) [13]: 0
- Hepatotoxicity (moderate) [14]: 3
- Hepatotoxicity (severe hepatitis) [15]: 0

Molecule: CO[C@@H]1[C@@H](OC(N)=O)[C@@H](O)[C@H](Oc2ccc3c(O)c(NC(=O)c4ccc(O)c(CC=C(C)C)c4)c(=O)oc3c2C)OC1(C)C [NOVOBIOCIN]
- Hepatotoxicity (chronic liver disease) [1]: 0
- Hepatotoxicity (choleostasis) [2]: 3
- Hepatotoxicity (granulomatous hepatitis) [3]: 0
- Hepatotoxicity (benign tumour) [4]: 0
- Hepatotoxicity (cirrhosis) [5]: 0
- Hepatotoxicity (malignant tumour) [6]: 0
- Hepatotoxicity (steatosis) [7]: 0
- Hepatotoxicity (association with vascular disease) [8]: 0
- Hepatotoxicity (acute) [9]: 5
- Hepatotoxicity (mechanism) [10]: Allergic, Dose-dependant
- Hepatotoxicity (acute) [11]: 0%
- Hepatotoxicity (moderate) [12]: 40%
- Hepatotoxicity (cytolytic) [13]: 2
- Hepatotoxicity (moderate) [14]: 2
- Hepatotoxicity (severe hepatitis) [15]: 2

Molecule: CCC1(CC)C(=O)NCC(C)C1=O (stereo not given) [METHYPRYLON]
- Hepatotoxicity (chronic liver disease) [1]: 0
- Hepatotoxicity (choleostasis) [2]: 1
- Hepatotoxicity (granulomatous hepatitis) [3]: 0
- Hepatotoxicity (benign tumour) [4]: 0
- Hepatotoxicity (cirrhosis) [5]: 0
- Hepatotoxicity (malignant tumour) [6]: 0
- Hepatotoxicity (steatosis) [7]: 0
- Hepatotoxicity (association with vascular disease) [8]: 0
- Hepatotoxicity (acute) [9]: 1
- Hepatotoxicity (mechanism) [10]: Dose-dependant
- Hepatotoxicity (acute) [11]: 0%
- Hepatotoxicity (moderate) [12]: 0%
- Hepatotoxicity (cytolytic) [13]: 1
- Hepatotoxicity (moderate) [14]: 1
- Hepatotoxicity (severe hepatitis) [15]: 0

Molecule: CS(=O)(=O)c1ccc([C@@H](O)[C@@H](CO)NC(=O)C(Cl)Cl)cc1 [THIAMPHENICOL]
- Hepatotoxicity (chronic liver disease) [1]: 0
- Hepatotoxicity (choleostasis) [2]: 0
- Hepatotoxicity (granulomatous hepatitis) [3]: 0
- Hepatotoxicity (benign tumour) [4]: 0
- Hepatotoxicity (cirrhosis) [5]: 0
- Hepatotoxicity (malignant tumour) [6]: 0
- Hepatotoxicity (steatosis) [7]: 0
- Hepatotoxicity (association with vascular disease) [8]: 0
- Hepatotoxicity (acute) [9]: 1
- Hepatotoxicity (mechanism) [10]: Allergic
- Hepatotoxicity (acute) [11]: 0%
- Hepatotoxicity (moderate) [12]: 0%
- Hepatotoxicity (cytolytic) [13]: 0
- Hepatotoxicity (moderate) [14]: 0
- Hepatotoxicity (severe hepatitis) [15]: 0

Molecule: CN1[C@@H]2CC[C@H]1C[C@@H](OC(=O)c1c[nH]c3ccccc13)C2 [TROPISETRON]
- Hepatotoxicity (chronic liver disease) [1]: 0
- Hepatotoxicity (choleostasis) [2]: 0
- Hepatotoxicity (granulomatous hepatitis) [3]: 0
- Hepatotoxicity (benign tumour) [4]: 0
- Hepatotoxicity (cirrhosis) [5]: 0
- Hepatotoxicity (malignant tumour) [6]: 0
- Hepatotoxicity (steatosis) [7]: 0
- Hepatotoxicity (association with vascular disease) [8]: 0
- Hepatotoxicity (acute) [9]: 1
- Hepatotoxicity (mechanism) [10]: Dose-dependant
- Hepatotoxicity (acute) [11]: 4.5%
- Hepatotoxicity (moderate) [12]: 40.9%
- Hepatotoxicity (cytolytic) [13]: 1
- Hepatotoxicity (moderate) [14]: 3
- Hepatotoxicity (severe hepatitis) [15]: 0

Molecule: O[C@H]1[C@H]2[C@H](O)CCCN2C[C@H]1O [TRIDOLGOSIR]
- Hepatotoxicity (chronic liver disease) [1]: 0
- Hepatotoxicity (choleostasis) [2]: 0
- Hepatotoxicity (granulomatous hepatitis) [3]: 0
- Hepatotoxicity (benign tumour) [4]: 0
- Hepatotoxicity (cirrhosis) [5]: 0
- Hepatotoxicity (malignant tumour) [6]: 0
- Hepatotoxicity (steatosis) [7]: 0
- Hepatotoxicity (association with vascular disease) [8]: 0
- Hepatotoxicity (acute) [9]: 1
- Hepatotoxicity (mechanism) [10]: Dose-dependant
- Hepatotoxicity (acute) [11]: 10.5%
- Hepatotoxicity (moderate) [12]: 52.6%
- Hepatotoxicity (cytolytic) [13]: 0
- Hepatotoxicity (moderate) [14]: 2
- Hepatotoxicity (severe hepatitis) [15]: 0

Molecule: CO[C@@H]1[C@@H](N)[C@@H](O[C@H]2[C@H](Oc3cccc4c(O)c5c(=O)oc6ccc(C)c7c(=O)oc(c34)c5c67)O[C@H](C)[C@H](O)[C@]2(C)O)O[C@H](C)[C@@H]1O [ELSAMITRUCIN]
- Hepatotoxicity (chronic liver disease) [1]: 0
- Hepatotoxicity (choleostasis) [2]: 0
- Hepatotoxicity (granulomatous hepatitis) [3]: 0
- Hepatotoxicity (benign tumour) [4]: 0
- Hepatotoxicity (cirrhosis) [5]: 0
- Hepatotoxicity (malignant tumour) [6]: 0
- Hepatotoxicity (steatosis) [7]: 0
- Hepatotoxicity (association with vascular disease) [8]: 0
- Hepatotoxicity (acute) [9]: 2
- Hepatotoxicity (mechanism) [10]: Dose-dependant
- Hepatotoxicity (acute) [11]: 1.6%
- Hepatotoxicity (moderate) [12]: 13%
- Hepatotoxicity (cytolytic) [13]: 0
- Hepatotoxicity (moderate) [14]: 4
- Hepatotoxicity (severe hepatitis) [15]: 1

Molecule: [H]/N=C(/N)N[C@H]1[C@H](O)[C@@H](O)[C@H](O[C@@H]2O[C@@H](C)[C@](O)(C=O)[C@H]2O[C@@H]2O[C@@H](CO)[C@H](O)[C@@H](O)[C@@H]2NC)[C@@H](N/C(N)=N\[H])[C@@H]1O [STREPTOMYCIN]
- Hepatotoxicity (chronic liver disease) [1]: 0
- Hepatotoxicity (choleostasis) ([2]; Liver): 1
- Hepatotoxicity (granulomatous hepatitis) ([3]; Liver): 0
- Hepatotoxicity (benign tumour) [4]: 0
- Hepatotoxicity (cirrhosis) [5]: 0
- Hepatotoxicity (malignant tumour) [6]: 0
- Hepatotoxicity (steatosis) [7]: 0
- Hepatotoxicity (association with vascular disease) [8]: 0
- Hepatotoxicity (acute) [9]: 4
- Hepatotoxicity (mechanism) ([10]; Liver): Allergic
- Hepatotoxicity (acute) ([11]; Liver): 0%
- Hepatotoxicity (moderate) ([12]; Liver): 0%
- Hepatotoxicity (cytolytic) ([13]; Liver): 2
- Hepatotoxicity (moderate) [14]: 1
- Hepatotoxicity (severe hepatitis) ([15]; Liver): 0

Molecule: CCCCNC(=N)NC(=N)N [BUFORMIN]
- Hepatotoxicity (chronic liver disease) [1]: 0
- Hepatotoxicity (choleostasis) ([2]; Liver): 0
- Hepatotoxicity (granulomatous hepatitis) ([3]; Liver): 0
- Hepatotoxicity (benign tumour) [4]: 0
- Hepatotoxicity (cirrhosis) [5]: 0
- Hepatotoxicity (malignant tumour) [6]: 0
- Hepatotoxicity (steatosis) [7]: 0
- Hepatotoxicity (association with vascular disease) [8]: 0
- Hepatotoxicity (acute) [9]: 1
- Hepatotoxicity (mechanism) ([10]; Liver): Allergic
- Hepatotoxicity (acute) ([11]; Liver): 0%
- Hepatotoxicity (moderate) ([12]; Liver): 0%
- Hepatotoxicity (cytolytic) ([13]; Liver): 0
- Hepatotoxicity (moderate) [14]: 0
- Hepatotoxicity (severe hepatitis) ([15]; Liver): 0

From ChEMBL document CHEMBL3137667, “[Drug-induced liver injury; fourteenth updated edition of the bibliographic database of liver injuries and related drugs]” (Gastroenterol Clin Biol, 2004)
